The target in assay [1] is T1, dopamine autoreceptor (D2) (Rattus norvegicus, UniProt P61169).
T1 construct: from tissue; host or cells: rat striatum homogenate
Description: Affinity for the dopamine autoreceptor, rat striatal tissue homogenate (D2 Quin.). The format is binding. The note with it: homogenized rat striatal brain tissue. The method, then: The affinity for the dopamine autoreceptor was established by the standard experimental test procedure of Seemen and Schaus, European Journal of Pharmacology, 203:105-109 (1991). According to this procedure, homogenized rat striatal brain tissue was incubated with the appropriate concentrations of test compound, filtered and washed and counted in a Betaplate scintillation counter.

Assay [2] deals with T2, dopamine D2 receptor (Rattus norvegicus, UniProt P61169).
T2 construct: from tissue; host or cells: limbic brain tissue homogenate
T2 sequence (P61169 whole entry): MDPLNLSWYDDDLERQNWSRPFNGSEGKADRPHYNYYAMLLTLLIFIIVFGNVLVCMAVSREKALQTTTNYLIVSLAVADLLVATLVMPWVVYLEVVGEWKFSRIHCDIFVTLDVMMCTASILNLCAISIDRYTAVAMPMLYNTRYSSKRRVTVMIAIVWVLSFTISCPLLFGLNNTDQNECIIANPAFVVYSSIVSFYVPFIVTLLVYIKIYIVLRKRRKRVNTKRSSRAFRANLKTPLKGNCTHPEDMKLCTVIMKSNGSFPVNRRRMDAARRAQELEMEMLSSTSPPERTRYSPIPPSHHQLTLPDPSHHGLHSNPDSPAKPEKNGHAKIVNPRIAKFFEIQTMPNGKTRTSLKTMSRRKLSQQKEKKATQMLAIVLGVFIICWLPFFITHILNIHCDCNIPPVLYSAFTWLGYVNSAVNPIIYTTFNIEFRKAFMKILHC
Description: Ratio of D2 Spiper to D2 Quin. (LowAg/HighAg, intrinsic activity). Format: binding. The note with it: D2 Spiper IC50 / D2 Quin. IC50 (LowAg/HighAg). From the text: Efforts to induce antipsychotic activity with dopamine autoreceptor agonists have been successful (e.g., see Dorsini et al., Adv. Biochem. Psychopharmacol., 16:645-648 (1977); Tamminga et al., Science, 200:567-568 (1975); and Tamminga et al., Psychiatry 398-402 (1986). A method for determining intrinsic activity at the dopamine D2 receptor was recently reported by Lahti et al., Mol. Pharm. 42:432-438 (1993). Intrinsic activity is predicted using the ratio of the "low-affinity agonist" (i.e., LowAg) state of the receptor and the "high-affinity agonist" (i.e., HighAg) state of the receptor, i.e. LowAg/HighAg. These ratios correlate with the agonist, partial agonist, and antagonist activities of a given compound. Such activities characterize the ability of a compound to elicit an antipsychotic effect.
The affinity for the dopamine autoreceptor was established by the standard experimental test procedure of Seemen and Schaus, European Journal of Pharmacology, 203:105-109 (1991). According to this procedure, homogenized rat striatal brain tissue was incubated with the appropriate concentrations of test compound, filtered and washed and counted in a Betaplate scintillation counter. […]

Assay [3] addresses T2, dopamine D2 receptor. Description: Affinity for the dopamine D2 receptor, 3H-spiroperidol binding in limbic brain tissue homogenate (D2 Spiper). The settings on record: 3H-spiroperidol (Spiper.); homogenized limbic brain tissue. Here is the method: High affinity for the dopamine D2 receptor was established by the standard experimental test procedure of Fields, et al., Brain Res., 136:578 (1977) and Yamamura et al., eds., Neurotransmitter Receptor Binding, Raven Press, N.Y. (1978). Homogenized limbic brain tissue was incubated with ^3 H-spiroperidol (Spiper.) and the appropriate concentrations of test compound, filtered, washed and shaken with Hydrofluor scintillation cocktail (available from National Diagnostics) and counted in a Packard 460 CD scintillation counter.

Counter-ions that a name gives are not always drawn.

T1 sequence (P61169 whole entry): as above

As usually defined, the IC50 is the midpoint of a concentration-inhibition curve. A high value points to a need for much substance. In the case of `O=C1Cc2c(NCCNCc3ccccc3)cccc2N1` [Example 1, 4-(2-Benzylamino-ethylamino)-1,3-dihydro-indol-2-one.dihydrochloride.0.1 hydrate], the values for the IC50 in assay [1] and in assay [3] were 13.2 nM and 892 nM, respectively. Further, in assay [2], the Ratio is reported as 67.7.

Source of the values: patent US6228880A, “4-amino-(ethylamino)-oxindole dopamine autoreceptor agonists” (American Home Products Corp, priority 1999, dated 2001).
